Data set [1] in a line: AUClast in monkey at 10 mg/kg, po. In kind it is ADME, organism-based, Macaca mulatta. Particulars: rhesus monkey, in vivo.
The target in data set [2] is T1, Histone deacetylase 11 (Homo sapiens, UniProt Q96DB2).
T1 sequence (Q96DB2 whole entry): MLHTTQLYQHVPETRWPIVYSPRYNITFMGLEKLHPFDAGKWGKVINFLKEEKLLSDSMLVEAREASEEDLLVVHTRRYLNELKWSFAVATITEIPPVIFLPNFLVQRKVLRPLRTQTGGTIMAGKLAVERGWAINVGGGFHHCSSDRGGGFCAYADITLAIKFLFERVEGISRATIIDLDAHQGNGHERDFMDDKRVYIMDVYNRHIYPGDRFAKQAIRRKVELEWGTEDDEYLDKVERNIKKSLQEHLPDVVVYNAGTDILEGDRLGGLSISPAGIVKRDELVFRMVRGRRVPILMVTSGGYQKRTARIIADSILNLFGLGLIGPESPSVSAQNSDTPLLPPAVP
Briefly: Inhibition of human recombinant HDAC11 using fluorescent peptide p53 (379 to 382 residues) RHKK(Ac) as substrate by fluorescence based analysis.

In data set [3] the target is Histone deacetylase 2 (Homo sapiens, UniProt Q92769). Briefly: Inhibition of human recombinant HDAC2 using fluorescent peptide p53 (379 to 382 residues) RHKK(Ac) as substrate by fluorescence based analysis.
Sequence of Histone deacetylase 2 (Q92769 whole entry, the tested form may be a part): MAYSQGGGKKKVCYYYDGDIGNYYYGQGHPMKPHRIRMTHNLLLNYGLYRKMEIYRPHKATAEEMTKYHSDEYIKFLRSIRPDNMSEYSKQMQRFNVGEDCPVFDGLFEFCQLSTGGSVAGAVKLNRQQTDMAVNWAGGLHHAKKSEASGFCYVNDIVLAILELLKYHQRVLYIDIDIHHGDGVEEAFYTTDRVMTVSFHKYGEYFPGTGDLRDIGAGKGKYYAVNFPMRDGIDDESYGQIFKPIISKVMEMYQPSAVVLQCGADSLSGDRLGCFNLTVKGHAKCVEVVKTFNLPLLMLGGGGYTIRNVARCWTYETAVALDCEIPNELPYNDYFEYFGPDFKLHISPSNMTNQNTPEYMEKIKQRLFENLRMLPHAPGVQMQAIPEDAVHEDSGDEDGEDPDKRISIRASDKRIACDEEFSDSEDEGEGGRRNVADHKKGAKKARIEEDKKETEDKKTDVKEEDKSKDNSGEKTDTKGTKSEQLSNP
In data set [4] the test system is THP-1. Briefly: Inhibition of TNF-alpha secretion in LPS-stimulated human THP-1 cells pretreated with compound for 24 hrs followed by LPS-induction and measured after 4 hrs by ELISA analysis. Format: functional, cell-based. Particulars: dose 0.3-10 µM.
Data set [5] has as its target T2, Histone deacetylase 8 (Homo sapiens, UniProt Q9BY41).
T2 sequence (Q9BY41 whole entry): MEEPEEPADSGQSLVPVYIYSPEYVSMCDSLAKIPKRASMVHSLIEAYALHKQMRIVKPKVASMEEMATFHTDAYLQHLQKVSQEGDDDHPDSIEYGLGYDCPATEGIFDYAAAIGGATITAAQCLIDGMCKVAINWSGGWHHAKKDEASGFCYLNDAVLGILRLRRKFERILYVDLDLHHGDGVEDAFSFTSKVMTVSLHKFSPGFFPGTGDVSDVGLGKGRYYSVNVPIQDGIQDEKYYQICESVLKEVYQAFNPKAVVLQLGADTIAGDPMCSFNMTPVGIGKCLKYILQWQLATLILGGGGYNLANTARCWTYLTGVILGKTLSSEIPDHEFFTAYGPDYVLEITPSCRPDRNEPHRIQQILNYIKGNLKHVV
Put plainly: Inhibition of human recombinant HDAC8 using fluorescent peptide p53 (379 to 382 residues) (RHK(Ac)K(Ac)) as substrate by fluorescence based analysis.

Data set [6] is filed under the species Homo sapiens. Put plainly: Selectivity index, ratio of IC50 for inhibition of his-tagged human recombinant HDAC1 using fluor de lys-SIRT1 as substrate to IC50 for inhibition of N-terminal GST-tagged human recombinant HDAC6 expressed in Spodoptera frugiperda.
The target of data set [7] is T3, Histone deacetylase 7 (Homo sapiens, UniProt Q8WUI4).
T3 sequence (Q8WUI4 whole entry): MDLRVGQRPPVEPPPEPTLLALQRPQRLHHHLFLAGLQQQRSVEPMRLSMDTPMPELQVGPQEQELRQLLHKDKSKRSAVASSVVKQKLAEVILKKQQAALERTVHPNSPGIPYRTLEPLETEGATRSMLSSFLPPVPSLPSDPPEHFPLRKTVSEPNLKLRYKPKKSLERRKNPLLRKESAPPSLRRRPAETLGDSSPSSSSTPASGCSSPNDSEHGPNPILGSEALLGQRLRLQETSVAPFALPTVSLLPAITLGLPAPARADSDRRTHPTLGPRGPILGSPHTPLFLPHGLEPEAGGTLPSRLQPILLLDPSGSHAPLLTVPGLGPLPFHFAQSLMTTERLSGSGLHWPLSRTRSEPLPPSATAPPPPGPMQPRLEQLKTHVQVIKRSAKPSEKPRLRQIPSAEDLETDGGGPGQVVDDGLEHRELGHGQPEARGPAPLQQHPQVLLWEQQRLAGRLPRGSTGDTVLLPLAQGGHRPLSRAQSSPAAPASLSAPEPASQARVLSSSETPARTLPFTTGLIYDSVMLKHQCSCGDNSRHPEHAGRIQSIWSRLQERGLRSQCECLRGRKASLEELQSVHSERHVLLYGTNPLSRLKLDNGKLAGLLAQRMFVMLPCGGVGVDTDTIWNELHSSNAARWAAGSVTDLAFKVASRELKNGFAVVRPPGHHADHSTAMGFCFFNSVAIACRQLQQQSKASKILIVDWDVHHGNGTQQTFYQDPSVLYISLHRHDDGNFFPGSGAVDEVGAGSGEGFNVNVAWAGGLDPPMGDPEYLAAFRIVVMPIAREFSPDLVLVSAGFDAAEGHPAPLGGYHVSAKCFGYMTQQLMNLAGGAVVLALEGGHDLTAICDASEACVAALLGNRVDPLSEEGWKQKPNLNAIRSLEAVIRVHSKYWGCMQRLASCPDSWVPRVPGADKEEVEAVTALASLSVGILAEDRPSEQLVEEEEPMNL
Briefly: Inhibition of human recombinant HDAC7 using Boc-Lys(tri-fluoroacetyl)-AMC as substrate by fluorescence based analysis.

The target in data set [8] is Histone deacetylase 1 (Homo sapiens, UniProt Q13547). Put plainly: Inhibition of human recombinant HDAC1 using fluorescent peptide p53 (379 to 382 residues) RHKK(Ac) as substrate by fluorescence based analysis.
Sequence of Histone deacetylase 1 (Q13547 whole entry, the tested form may be a part): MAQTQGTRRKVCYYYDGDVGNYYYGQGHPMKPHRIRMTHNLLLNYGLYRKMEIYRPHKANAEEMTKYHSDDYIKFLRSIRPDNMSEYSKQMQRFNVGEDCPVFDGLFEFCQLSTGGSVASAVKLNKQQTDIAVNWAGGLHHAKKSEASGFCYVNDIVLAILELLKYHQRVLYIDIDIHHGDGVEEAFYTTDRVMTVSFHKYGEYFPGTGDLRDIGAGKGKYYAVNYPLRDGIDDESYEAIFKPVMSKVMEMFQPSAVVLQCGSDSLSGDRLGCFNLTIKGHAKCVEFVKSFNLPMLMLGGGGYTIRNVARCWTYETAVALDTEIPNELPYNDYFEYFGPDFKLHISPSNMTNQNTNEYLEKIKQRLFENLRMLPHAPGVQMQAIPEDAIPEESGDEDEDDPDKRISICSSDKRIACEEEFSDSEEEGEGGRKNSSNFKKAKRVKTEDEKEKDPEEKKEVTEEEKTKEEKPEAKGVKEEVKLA
The target of data set [9] is T4, Polyamine deacetylase HDAC10 (Homo sapiens, UniProt Q969S8).
T4 sequence (Q969S8 whole entry): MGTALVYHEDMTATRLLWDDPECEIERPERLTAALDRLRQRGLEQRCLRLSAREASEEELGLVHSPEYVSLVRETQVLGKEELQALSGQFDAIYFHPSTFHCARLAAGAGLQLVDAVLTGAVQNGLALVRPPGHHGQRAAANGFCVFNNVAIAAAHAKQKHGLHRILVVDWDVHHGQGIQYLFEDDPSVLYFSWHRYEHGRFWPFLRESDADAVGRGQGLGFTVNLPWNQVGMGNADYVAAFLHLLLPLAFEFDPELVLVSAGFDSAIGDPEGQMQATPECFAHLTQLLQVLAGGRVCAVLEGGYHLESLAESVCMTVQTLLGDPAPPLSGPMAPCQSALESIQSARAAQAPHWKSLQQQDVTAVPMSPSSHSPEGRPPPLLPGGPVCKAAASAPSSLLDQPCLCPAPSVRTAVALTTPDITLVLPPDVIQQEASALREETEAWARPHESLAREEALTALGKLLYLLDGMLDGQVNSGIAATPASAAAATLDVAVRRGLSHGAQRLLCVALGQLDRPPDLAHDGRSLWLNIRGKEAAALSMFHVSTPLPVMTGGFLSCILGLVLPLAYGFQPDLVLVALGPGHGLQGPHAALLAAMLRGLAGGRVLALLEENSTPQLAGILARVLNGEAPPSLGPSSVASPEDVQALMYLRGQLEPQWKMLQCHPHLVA
Briefly: Inhibition of human recombinant HDAC10 using fluorescent peptide p53 (379 to 382 residues) RHKK(Ac) as substrate by fluorescence based analysis.

Data set [10] has as its target Histone deacetylase 3 (Homo sapiens, UniProt O15379).

A value given as a limit tells only on which side of the number the result lay.

Sequence of Histone deacetylase 3 (O15379 whole entry): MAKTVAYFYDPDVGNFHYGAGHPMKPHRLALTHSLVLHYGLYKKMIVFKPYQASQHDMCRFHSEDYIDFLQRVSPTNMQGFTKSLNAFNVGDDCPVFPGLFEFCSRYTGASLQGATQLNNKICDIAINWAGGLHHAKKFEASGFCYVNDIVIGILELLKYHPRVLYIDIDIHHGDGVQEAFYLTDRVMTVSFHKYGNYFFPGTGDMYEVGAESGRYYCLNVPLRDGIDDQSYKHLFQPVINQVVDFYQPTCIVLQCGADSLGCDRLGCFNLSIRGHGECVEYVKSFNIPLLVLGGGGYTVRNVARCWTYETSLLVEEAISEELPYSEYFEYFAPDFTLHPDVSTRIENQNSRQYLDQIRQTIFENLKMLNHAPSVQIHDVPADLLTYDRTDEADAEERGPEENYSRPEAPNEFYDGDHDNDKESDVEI

`CC1(C)CC(=O)c2c(C(F)(F)F)nn(Cc3ccc(C(=O)NO)cc3)c2C1`: the AUC(0-t) in data set [1] is 332 ng·h/mL. For the same compound, the IC50 in [2], in data set [3], in [5], in [7], in data set [8] and in data set [9] was > 20 µM each time. Further, in data set [10], the IC50 is > 20 µM. Besides, the inhibition result in data set [4] was “Dose-Dependent Effect”. For the same compound, the Ratio IC50 in [6] is 217.

Regarding `O=C(NO)c1ccc(Cn2c3c(c4ccccc42)C(=O)CCC3)cc1`, the IC50 in data set [2] is > 20 µM; in [3], > 20 µM; in data set [5] it was > 20 µM; in data set [7], > 20 µM; in data set [8], 18.1 µM; in [9], > 20 µM. Also, the IC50 in data set [10] was > 20 µM. For the same compound, in [6], the Ratio IC50 worked out at 168.

Usually AUC(0-t) stands for the area under the concentration-time curve up to a stated or last time point. For orientation: IC50 means the midpoint of a concentration-inhibition curve.

The values above are taken from ChEMBL document CHEMBL5523684, “Development of a tetrahydroindazolone-based HDAC6 inhibitor with in-vivo anti-arthritic activity” (Bioorg Med Chem, 2024).
